Reference: patent publication US7507776B2, “Outdoor weatherable photopolymerizable coatings” (3M Innovative Properties Company, priority 2003, dated 2009)
Read-outs that look alike come from different tables or passages of the source.

Assay: 48 hr solubility of benzotriazole UV absorbers in solubilizing monomers
Method: The solubility of the benzotriazole 2-(2-hydroxy-3-alpha-cumyl-5-t-octylphenyl)-5-trifluoromethylbenzotriazole (CGL-139, experimentally available from Ciba Specialty Chemicals) in various solubilizing monomers was determined. Mixtures were made up using 5% increments of the benzotriazole. The benzotriazole and solubilizing monomer to be tested were mixed with gentle heating to 70° C. in a water bath until dissolved, then allowed to stand for 48 hours at room temperature. After 48 hours, each mixture was inspected for benzotriazole precipitation. Solubility was determined to within 5% by recording the highest concentration tested for which there was no precipitation and the lowest concentration for which precipitation occurred. […] Where reported in the literature, the Tg of a polymer made entirely of the tested solubilizing monomer is also given.
Using the method of Example 1, the solubility of a variety of benzotriazoles in isobornyl acrylate was determined. The formula for each of the tested benzotriazoles is set out above. These benzotriazoles can also be represented using the general structure 2-(2-hydroxy-3-R2-5-R3-phenyl)-5-R1-benzotriazole. For CGL-139, R1=trifluoromethyl, R2=alpha-cumyl, and R3=t-octyl. For TINUVIN 928, R1=H, R2=alpha-cumyl, and R3=t-octyl. For Tinuvin 328, R1=H, R2=t-amyl, and R3=t-amyl. For TINUVIN 327, R1=chloro, R2=t-butyl, and R3=t-butyl. For TINUVIN 326, R1=chloro, R2=t-butyl, and R3=methyl. For both TINUVIN 234 and TINUVIN 900, R1=H, R2=alpha-cumyl, and R3=alpha-cumyl.

[1] = in isobornyl acrylate, method of Example 1, 48 hours at room temperature

| SMILES | Benzotriazole 48 hr Solubility, wt. % | Benzotriazole 48 hr Solubility, wt. % [1] |
| --- | --- | --- |
| Cc1cc(-n2nc3ccc(Cl)cc3n2)c(O)c(C(C)(C)C)c1 [TINUVIN 326, 5-chloro-2-(2-hydroxy-3-tert-butyl-5-methylphenyl)-2H-benzotriazole] | 5-10% wt. % | – |
| CC(C)(c1ccccc1)c1cc(-n2nc3ccccc3n2)c(O)c(C(C)(C)c2ccccc2)c1 [TINUVIN 900, 2-(2-hydroxy-3,5-di-alpha-cumylphenyl)-2H-benzotriazole] | – | 0-5% wt. % |
| CC(C)(C)CC(C)(C)c1cc(-n2nc3ccc(C(F)(F)F)cc3n2)c(O)c(C(C)(C)c2ccccc2)c1 [CGL-139, 2-(2-hydroxy-3-alpha-cumyl-5-t-octylphenyl)-5-trifluoromethylbenzotriazole] | 25-30% wt. % | – |
| CC(C)(C)c1cc(-n2nc3ccc(Cl)cc3n2)c(O)c(C(C)(C)C)c1 [TINUVIN 327, 5-chloro-2-(2-hydroxy-3,5-di-tert-butylphenyl)-2H-benzotriazole] | – | 5-10% wt. % |
| CCC(C)(C)c1cc(-n2nc3ccccc3n2)c(O)c(C(C)(C)CC)c1 [TINUVIN 328, 2-(2-hydroxy-3,5-di-tert-amylphenyl)-2H-benzotriazole] | – | 20-25% wt. % |
| CC(C)(C)CC(C)(C)c1cc(-n2nc3ccccc3n2)c(O)c(C(C)(C)c2ccccc2)c1 [TINUVIN 928, 2-(2-hydroxy-3-alpha-cumyl-5-tert-octylphenyl)-2H-benzotriazole] | 30-35% wt. % | – |
